Drawing on the Deep4Chem optical property database, this text covers emission maximum for 8 molecules.

Molecules are shown by their SMILES.

A short description of the data set: solvent given as SMILES.

`CN(C)c1ccc(/C=C2\CCCC2=O)cc1`: the emission maximum is reported as 488 nm (in CC#N); 474 nm (in CC(C)=O); 472 nm (in CC(C)O); 405 nm (in CCCCCC); 479 nm (in CCCCO); 479 nm (in CCCO). Further, the emission maximum is on record as 480 nm (in CCO); 448 nm (in CCOC(C)=O); 420 nm (in CCOCC); 504 nm (in CN(C)C=O); 488 nm (in CO); 493 nm (in CS(C)=O). Further, the emission maximum is, setting by setting: (in Cc1ccccc1) 424 nm; (in ClC(Cl)(Cl)Cl) 431 nm; (in ClC(Cl)Cl) 469 nm; (in ClCCl) 472 nm; (in S=C=S) 422 nm; (in c1ccccc1) 435 nm. Where the note is “in c1ccncc1”, this molecule yielded an emission maximum of 480 nm.

As for `COc1ccc(-c2cc(B(c3c(C)cc(C)cc3C)c3c(C)cc(C)cc3C)c(-c3sc(-c4ccc(OC)cc4)cc3P(=O)(c3ccccc3)c3ccccc3)s2)cc1`, under “in CO”, the emission maximum worked out at 586 nm.

`CC(C)(C)c1ccc(-c2sc3c(-c4ccc(C(C)(C)C)cc4)c4n(c3c2-c2ccc(C(C)(C)C)cc2)[B-](F)(F)[N+]2=Cc3c(-c5ccc(C(C)(C)C)cc5)c5sc(-c6ccc(C(C)(C)C)cc6)c(-c6ccc(C(C)(C)C)cc6)c5n3[B-](F)(F)[N+]2=C4)cc1`: the emission maximum by setting is: (in CC#N) 627 nm; (in CCCCCC) 626 nm; (in CN(C)C=O) 636 nm; (in Cc1ccccc1) 632 nm; (in ClCCl) 631 nm.

Turning to `CC(C)(C)c1ccc2c(c1)c1cc(C(C)(C)C)ccc1n2-c1ccc(S(=O)(=O)c2ccc(-n3c4ccc(C(C)(C)C)cc4c4cc(C(C)(C)C)ccc43)cc2)cc1`, the emission maximum came out at 404 nm (in Cc1ccccc1) and 423 nm (in O=P(c1ccccc1)(c1ccccc1)c1ccccc1Oc1ccccc1P(=O)(c1ccccc1)c1ccccc1).

The molecule `CCCCn1c(-c2ccc(-c3ccc(-c4ccc(-c5n(CCCC)c6cc(C)ccc6[n+]5CCCC)cc4)cc3)cc2)[n+](CCCC)c2ccc(C)cc21` showed an emission maximum (in O) of 397 nm.

For the molecule `CCCCC1(c2ccccc2)Nc2c(-c3ccc(N(C)C)cc3)ccc(-c3ccc(N(C)C)cc3)c2N=C1c1ccccc1` (stereo unspecified), the emission maximum was determined as 568 nm (in C1CCOC1); 588 nm (in CC#N); 530 nm (in CCCCCC); 596 nm (in CN(C)C=O); 547 nm (in Cc1ccccc1); 561 nm (in ClC(Cl)Cl).

For `O=c1[nH]c(=O)c2nc3ccccc3nc2[nH]1`, the emission maximum (in CC#N) was determined as 432 nm.

On to `CCCCCCCCCCc1cc(-c2cc(CCCCCCCCCC)c(-c3cccs3)s2)sc1-c1cccs1`, for which the emission maximum (in CCCCCCCCCCCCCC) amounted to 481 nm.
